Reference: the NIST ThermoML archive (doi:10.1021/je0500025)
Structures can show the parent of a compound that is named as a salt. ± gives the expanded uncertainty stated by the source.

Tests used:
[1] = 101 kPa, Liquid
[2] = xn = mol fraction of the nth substance listed; conditions: 101 kPa, Liquid

Row | mass density ([1]; 293.15 K) [kg/m3] | viscosity ([1]; 293.15 K) [mPa·s] | mass density ([1]; 303.15 K) [kg/m3] | viscosity ([1]; 303.15 K) [mPa·s] | mass density ([1]; 313.15 K) [kg/m3] | viscosity ([1]; 313.15 K) [mPa·s] | mass density ([2]; 293.15 K, x1 = 1) [kg/m3] | viscosity ([2]; 293.15 K, x1 = 1) [mPa·s] | mass density ([2]; 303.15 K, x1 = 1) [kg/m3] | viscosity ([2]; 303.15 K, x1 = 1) [mPa·s] | mass density ([2]; 313.15 K, x1 = 1) [kg/m3] | viscosity ([2]; 313.15 K, x1 = 1) [mPa·s] | SMILES | mass density ([2]; 293.15 K, x2 = 0) [kg/m3] | viscosity ([2]; 293.15 K, x2 = 0) [mPa·s] | mass density ([2]; 303.15 K, x2 = 0) [kg/m3] | viscosity ([2]; 303.15 K, x2 = 0) [mPa·s] | mass density ([2]; 313.15 K, x2 = 0) [kg/m3] | viscosity ([2]; 313.15 K, x2 = 0) [mPa·s]
1 | 897.84 ± 3 | 0.901 ± 0.029 | 891.78 ± 3.1 | 0.77 ± 0.025 | 884.35 ± 3.2 | 0.666 ± 0.021 |  |  |  |  |  |  | CCC/C=C/COC(C)=O [(E)-2-hexenyl acetate] |  |  |  |  |  | 
2 |  |  |  |  |  |  | 897.84 ± 3 | 0.901 ± 0.029 | 891.78 ± 3.1 | 0.77 ± 0.025 | 884.35 ± 3.2 | 0.666 ± 0.021 | CCC/C=C/COC(C)=O [(E)-2-hexenyl acetate] + CCO |  |  |  |  |  | 
3 | 900.82 ± 2.9 | 0.893 ± 0.028 | 893.14 ± 3 | 0.763 ± 0.024 | 886.19 ± 3.2 | 0.66 ± 0.021 |  |  |  |  |  |  | CC/C=C\CCOC(C)=O [(Z)-3-hexenyl acetate] |  |  |  |  |  | 
4 |  |  |  |  |  |  | 900.82 ± 2.9 | 0.893 ± 0.028 | 893.14 ± 3 | 0.763 ± 0.024 | 886.19 ± 3.2 | 0.66 ± 0.021 | CC/C=C\CCOC(C)=O [(Z)-3-hexenyl acetate] + CCO |  |  |  |  |  | 
5 | 909.15 ± 3 | 0.599 ± 0.021 | 906.6 ± 3 | 0.527 ± 0.019 | 903.17 ± 3.1 | 0.469 ± 0.017 |  |  |  |  |  |  | CC/C=C\CCOC=O [(Z)-3-hexenyl formate] |  |  |  |  |  | 
6 |  |  |  |  |  |  | 909.15 ± 3 | 0.599 ± 0.021 | 906.6 ± 3 | 0.527 ± 0.019 | 903.17 ± 3.1 | 0.469 ± 0.017 | CC/C=C\CCOC=O [(Z)-3-hexenyl formate] + CCO |  |  |  |  |  | 
7 |  |  |  |  |  |  |  |  |  |  |  |  | CCO [ethanol] + CC/C=C\CCOC(C)=O | 788.24 ± 4.7 | 1.16 ± 0.037 | 780.73 ± 4.8 | 0.968 ± 0.031 | 771.98 ± 5 | 0.81 ± 0.026
8 |  |  |  |  |  |  |  |  |  |  |  |  | CCO [ethanol] + CC/C=C\CCOC=O | 788.24 ± 4.7 | 1.16 ± 0.037 | 780.73 ± 4.8 | 0.968 ± 0.031 | 771.98 ± 5 | 0.81 ± 0.026
9 |  |  |  |  |  |  |  |  |  |  |  |  | CCO [ethanol] + CCC/C=C/COC(C)=O | 788.24 ± 4.7 | 1.16 ± 0.037 | 780.73 ± 4.8 | 0.968 ± 0.031 | 771.98 ± 5 | 0.81 ± 0.026
10 |  |  |  |  |  |  |  |  |  |  |  |  | CCO [ethanol] + CCCCOC(C)=O | 788.24 ± 4.7 | 1.16 ± 0.037 | 780.73 ± 4.8 | 0.968 ± 0.031 | 771.98 ± 5 | 0.81 ± 0.026

Row | SMILES | mass density ([1]; 293.15 K) [kg/m3] | viscosity ([1]; 293.15 K) [mPa·s] | mass density ([1]; 303.15 K) [kg/m3] | viscosity ([1]; 303.15 K) [mPa·s] | mass density ([1]; 313.15 K) [kg/m3] | viscosity ([1]; 313.15 K) [mPa·s] | mass density ([2]; 293.15 K, x1 = 1) [kg/m3] | viscosity ([2]; 293.15 K, x1 = 1) [mPa·s] | mass density ([2]; 303.15 K, x1 = 1) [kg/m3] | viscosity ([2]; 303.15 K, x1 = 1) [mPa·s] | mass density ([2]; 313.15 K, x1 = 1) [kg/m3] | viscosity ([2]; 313.15 K, x1 = 1) [mPa·s] | mass density ([2]; 293.15 K, x2 = 0) [kg/m3] | viscosity ([2]; 293.15 K, x2 = 0) [mPa·s] | mass density ([2]; 303.15 K, x2 = 0) [kg/m3] | viscosity ([2]; 303.15 K, x2 = 0) [mPa·s] | mass density ([2]; 313.15 K, x2 = 0) [kg/m3] | viscosity ([2]; 313.15 K, x2 = 0) [mPa·s]
11 | CCCCOC(C)=O [butyl ethanoate] | 881.04 ± 3.2 | 0.732 ± 0.023 | 871.3 ± 3.4 | 0.628 ± 0.02 | 861.84 ± 3.5 | 0.546 ± 0.018 |  |  |  |  |  |  |  |  |  |  |  | 
12 | CCCCOC(C)=O [butyl ethanoate] + CCO |  |  |  |  |  |  | 881.04 ± 3.2 | 0.732 ± 0.023 | 871.3 ± 3.4 | 0.628 ± 0.02 | 861.84 ± 3.5 | 0.546 ± 0.018 |  |  |  |  |  | 
13 | CCO [ethanol] | 788.24 ± 4.7 | 1.16 ± 0.037 | 780.73 ± 4.8 | 0.968 ± 0.031 | 771.98 ± 5 | 0.81 ± 0.026 |  |  |  |  |  |  |  |  |  |  |  | 
